Target: T1, AMPK beta 2 (Mus musculus, UniProt Q6PAM0+Q8BRK8)
T1 construct: fully differentiated myotubes (C2C12 cells) grown in 96 well plate; endogenous in cells; host or cells: C2C12 myotubes (assignment to the beta 2 column inferred)
Assay: in-cell-ELISA for phospho-ACC: activation of AMPK, beta 2 (HepG2 cells / C2C12 myotubes)
Type: cell-based
Conditions: 2 h, 1 μM, percentage activation over vehicle control, read-out: Percentage activation of beta 2 at given concentration
Procedure: (§1) Activation of AMPK by various compounds were measured using in-cell-ELISA for phospho-ACC (Acetyl-CoA carboxylase 1) in HepG2 cells (liver) and fully differentiated myotubes (C2C12 cells) grown in 96 well plate. Cells were treated with 1 μM, 3 μM or 10 μM of the molecule (Example) for 2 h in serum free DMEM media. After methanol fixation, cells were blocked with BSA followed by addition of anti-phospho ACC antibody (Cell Signaling) and HRP conjugated secondary antibody. Absorbance values taken at 450 nm were normalized with total DNA (Hoechest stain). Results were expressed as percentage activation over vehicle control.
(§2) Percentage activation at compound (Example) concentration of 1, 3 or 10 μM for compounds according to the invention are shown in the following table. The number of the compound corresponds to the number of the Example (Ex) in the experimental section.

T1 sequence (Q6PAM0 whole entry): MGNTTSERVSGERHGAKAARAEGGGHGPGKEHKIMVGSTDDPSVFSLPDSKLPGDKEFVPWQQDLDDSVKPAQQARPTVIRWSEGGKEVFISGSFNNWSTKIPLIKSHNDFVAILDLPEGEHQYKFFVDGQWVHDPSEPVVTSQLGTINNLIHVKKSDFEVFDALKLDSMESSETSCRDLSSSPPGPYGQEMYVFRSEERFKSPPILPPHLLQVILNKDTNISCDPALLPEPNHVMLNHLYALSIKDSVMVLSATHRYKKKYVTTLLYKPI
T1 sequence (Q8BRK8 whole entry): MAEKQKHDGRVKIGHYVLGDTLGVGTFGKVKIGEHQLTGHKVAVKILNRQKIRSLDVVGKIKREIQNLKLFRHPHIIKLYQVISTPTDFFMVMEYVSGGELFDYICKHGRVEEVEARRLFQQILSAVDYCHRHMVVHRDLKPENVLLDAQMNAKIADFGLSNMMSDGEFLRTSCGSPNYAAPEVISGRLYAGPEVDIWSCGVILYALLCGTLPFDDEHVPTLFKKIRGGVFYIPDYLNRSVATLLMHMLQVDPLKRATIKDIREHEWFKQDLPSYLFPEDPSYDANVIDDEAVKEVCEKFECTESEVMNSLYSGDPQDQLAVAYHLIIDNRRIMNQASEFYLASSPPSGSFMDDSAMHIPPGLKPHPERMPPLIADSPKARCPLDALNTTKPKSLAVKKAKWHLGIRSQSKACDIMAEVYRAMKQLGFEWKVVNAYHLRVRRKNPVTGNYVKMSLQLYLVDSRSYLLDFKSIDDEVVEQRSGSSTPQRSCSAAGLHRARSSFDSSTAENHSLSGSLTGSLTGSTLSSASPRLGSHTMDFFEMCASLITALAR
T1 sequence (O54950 whole entry partner): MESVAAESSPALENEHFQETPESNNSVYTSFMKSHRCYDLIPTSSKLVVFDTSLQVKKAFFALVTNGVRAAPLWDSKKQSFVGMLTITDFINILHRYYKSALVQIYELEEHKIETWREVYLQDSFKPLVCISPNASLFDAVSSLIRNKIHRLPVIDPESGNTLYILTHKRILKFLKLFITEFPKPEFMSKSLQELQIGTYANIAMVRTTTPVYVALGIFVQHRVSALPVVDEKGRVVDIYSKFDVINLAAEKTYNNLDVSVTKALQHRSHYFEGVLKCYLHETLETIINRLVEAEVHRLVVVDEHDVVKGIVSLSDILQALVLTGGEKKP

activation at 1 µM [%]	SMILES
126	COc1ccc(C2CC23C(=O)Nc2cc(F)c(-c4ccc(-c5ccc(-n6cccn6)cc5)cc4)cc23)cc1CC(=O)O (stereo not shown) [Example 176]

Target: T2, AMPK beta 1 (Homo sapiens, UniProt Q13131+Q9Y478)
T2 construct: in-cell-ELISA for phospho-ACC (Acetyl-CoA carboxylase 1) in HepG2 cells (liver); endogenous in cells; host or cells: HepG2 (assignment to the beta 1 column inferred)
Assay: in-cell-ELISA for phospho-ACC: activation of AMPK, beta 1 (HepG2 cells / C2C12 myotubes)
Type: cell-based
Conditions: 1 μM, 2 h, percentage activation over vehicle control
Procedure: as §1, §2

T2 sequence (Q9Y478 2-270 limits assumed): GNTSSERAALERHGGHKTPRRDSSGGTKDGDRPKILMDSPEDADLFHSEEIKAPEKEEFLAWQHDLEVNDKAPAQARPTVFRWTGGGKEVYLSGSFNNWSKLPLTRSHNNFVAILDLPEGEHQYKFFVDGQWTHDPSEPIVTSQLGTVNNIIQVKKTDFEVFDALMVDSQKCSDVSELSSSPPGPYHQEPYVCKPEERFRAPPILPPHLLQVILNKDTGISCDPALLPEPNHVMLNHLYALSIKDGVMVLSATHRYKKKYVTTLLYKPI
T2 sequence (Q13131 whole entry): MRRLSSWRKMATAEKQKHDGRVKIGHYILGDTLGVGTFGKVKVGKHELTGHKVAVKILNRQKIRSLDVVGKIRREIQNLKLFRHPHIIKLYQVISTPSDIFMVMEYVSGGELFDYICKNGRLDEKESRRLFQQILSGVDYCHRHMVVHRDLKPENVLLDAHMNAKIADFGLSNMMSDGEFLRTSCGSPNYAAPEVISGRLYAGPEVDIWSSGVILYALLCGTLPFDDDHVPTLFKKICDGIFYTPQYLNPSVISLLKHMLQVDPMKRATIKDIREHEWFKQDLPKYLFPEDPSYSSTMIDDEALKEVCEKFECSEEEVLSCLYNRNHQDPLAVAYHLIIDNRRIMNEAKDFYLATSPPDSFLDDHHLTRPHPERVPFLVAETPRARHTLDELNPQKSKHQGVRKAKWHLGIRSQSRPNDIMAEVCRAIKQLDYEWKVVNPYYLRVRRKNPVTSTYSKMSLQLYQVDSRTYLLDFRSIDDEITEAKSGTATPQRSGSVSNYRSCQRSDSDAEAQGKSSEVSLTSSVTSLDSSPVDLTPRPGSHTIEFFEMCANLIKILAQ
T2 sequence (P54619 whole entry partner): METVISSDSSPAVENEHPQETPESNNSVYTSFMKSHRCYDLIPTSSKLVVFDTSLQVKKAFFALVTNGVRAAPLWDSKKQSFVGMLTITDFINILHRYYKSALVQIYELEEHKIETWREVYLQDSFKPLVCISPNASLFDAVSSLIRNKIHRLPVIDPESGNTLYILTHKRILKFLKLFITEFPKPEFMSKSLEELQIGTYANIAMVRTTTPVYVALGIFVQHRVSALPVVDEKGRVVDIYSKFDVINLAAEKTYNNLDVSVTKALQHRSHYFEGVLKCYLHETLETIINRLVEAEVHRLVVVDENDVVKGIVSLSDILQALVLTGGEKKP

Percentage activation of beta 1 at given concentration [% at 1 μM]	SMILES
127	Cc1ccc(C2CC23C(=O)Nc2cc(F)c(-c4ccc(-c5ccc(-n6cncn6)cc5)cc4)cc23)cc1C(=O)O (stereo not shown) [Example 148]
25	Cc1ccc(C2CC23C(=O)Nc2cc(Cl)c(-c4ccc(-c5ccc(-n6cncn6)cc5)c(F)c4)cc23)cc1C(=O)O (stereo not shown) [Example 151]
115	CC(C)(C(=O)O)c1ccc(C2CC23C(=O)Nc2cc(F)c(-c4ccc(-c5ccc(-n6cncn6)cc5)cc4)cc23)cc1 (stereo not shown) [Example 161]
95	Cc1ccc(C2CC23C(=O)Nc2cc(Cl)c(-c4ccc(-c5ccc(-n6cncn6)cc5)c(F)c4)cc23)cc1C(=O)O (stereo not shown) [Example 152]
118	Cc1ccc(C2CC23C(=O)Nc2cc(F)c(-c4ccc(-c5ccc(-n6cccn6)cc5)cc4)cc23)cc1C(=O)O (stereo not shown) [Example 144]

Same assay, conditions: 3 μM, 2 h, percentage activation over vehicle control

Percentage activation of beta 1 at given concentration [% at 3 μM]	SMILES
34	Cc1ccc(C2CC23C(=O)Nc2cc(Cl)c(-c4ccc(-c5ccc(-n6cncn6)cc5)cc4)cc23)cc1CO (stereo not shown) [Example 185]
47	O=C(O)Cc1cccc(C2CC23C(=O)Nc2cc(Cl)c(-c4ccc(-c5ccncc5)cc4)cc23)c1 (stereo not shown) [Example 58]

Same assay, conditions: 10 μM, 2 h, percentage activation over vehicle control

Percentage activation of beta 1 at given concentration [% at 10 μM]	SMILES
88	O=C(O)Cc1cccc(C2CC23C(=O)Nc2cc(Cl)c(-c4ccc(-c5ccccc5O)cn4)cc23)c1 (stereo not shown) [Example 17]

Same assay, conditions: 2 h, 1 μM, percentage activation over vehicle control, read-out: Percentage activation of beta 1 at given concentration

activation at 1 µM [%]	SMILES
91	COc1ccc(C2CC23C(=O)Nc2cc(F)c(-c4ccc(-c5ccc(-n6cccn6)cc5)cc4)cc23)cc1CC(=O)O (stereo not shown) [Example 176]
11	Cc1ccc(C2CC23C(=O)Nc2cc(F)c(-c4ccc(-c5ccc6c(cnn6C)c5)cc4)cc23)cc1C(=O)O (stereo not shown) [Example 160]
38	Cn1cc(C2CC23C(=O)Nc2cc(Cl)c(-c4ccc(-c5ccc(-n6cncn6)cc5)cc4)cc23)cc1C(=O)O (stereo not shown) [Example 126]
19	COc1ccc(C2CC23C(=O)Nc2cc(F)c(-c4ccc(-c5ccc(-n6cccn6)cc5)cc4)cc23)cc1C(=O)O (stereo not shown) [Example 164]
10	Cc1ccc(C2CC23C(=O)Nc2c3cc(-c3ccc(-c4ccc(-n5cccn5)cc4)cc3)c(Cl)c2Cl)cc1C(=O)O (stereo not shown) [Example 153]

Same assay, conditions: 2 h, 3 μM, percentage activation over vehicle control, read-out: Percentage activation of beta 1 at given concentration

activation at 3 µM [%]	SMILES
47	CC(C)c1ccc(C2CC23C(=O)Nc2cc(Cl)c(-c4ccc(-c5ccc(-n6cncn6)cc5)cc4)cc23)cc1C(=O)O (stereo not shown) [Example 131]
91	COc1ccc(C2CC23C(=O)Nc2cc(Cl)c(-c4ccc(-c5ccc(-n6cccn6)cc5)cc4)cc23)cc1C(=O)O (stereo not shown) [Example 121]
68	CC(C)c1ccc(C2CC23C(=O)Nc2cc(Cl)c(-c4ccc(N5CCC[C@@H]5CO)cc4)cc23)cc1C(=O)O (stereo partly shown) [Example 50]
39	O=C(O)c1ccc(C2CC23C(=O)Nc2cc(Cl)c(-c4ccc(-c5ccccc5O)cc4)cc23)cc1 (stereo not shown) [Example 32]
68	O=C(O)Cc1cccc(C2CC23C(=O)Nc2cc(F)c(-c4ccc(-c5ccccc5O)cc4)cc23)c1 (stereo not shown) [Example 31]
66	COCN1C(=O)C2(CC2c2ccc(C)c(C(=O)O)c2)c2cc(-c3ccc(-c4ccncc4)cc3)c(Cl)cc21 (stereo not shown) [Example 99]
21	Cc1ccc(C2CC23C(=O)Nc2cc(Cl)c(-c4ccc(-c5ccc(-n6cnnn6)cc5)cc4)cc23)cc1C(=O)O (stereo not shown) [Example 140]
19	Cc1ccc(C2CC23C(=O)Nc2cc(Cl)c(-c4ccc(-c5ccccc5O)cc4)cc23)cc1C(=O)Nc1nnn[nH]1 (stereo not shown) [Example 183]
62	Cc1ccc(C2CC23C(=O)Nc2cc(Cl)c(-c4ccc(-n5cccn5)cc4)cc23)cc1C(=O)O (stereo not shown) [Example 166]
42	Cc1ccc(C2CC23C(=O)Nc2cc(Cl)c(-c4ccc(-c5ccncc5)cc4)cc23)cc1C(=O)O (stereo not shown) [Example 59]
93	Cc1ccc(C2CC23C(=O)Nc2cc(Cl)c(-c4ccc(-c5ccncc5O)cc4)cc23)cc1C(=O)O (stereo not shown) [Example 21]
55	Cc1ccc(C2CC23C(=O)Nc2cc(F)c(-c4ccc(-c5ccncc5)cc4)cc23)cc1C(=O)O (stereo not shown) [Example 81]
81	Cc1ccc(C2CC23C(=O)Nc2cc(Cl)c(-c4ccc(-c5ccncc5)cc4)cc23)cc1CC(=O)O (stereo not shown) [Example 64]
99	Cc1ccc(C2CC23C(=O)Nc2cc(Cl)c(-c4ccc(-c5ncccc5O)cc4)cc23)cc1C(=O)O (stereo not shown) [Example 20]
53	Cc1ccc(C2CC23C(=O)Nc2cc(Cl)c(-c4ccc(N5CCC[C@H]5CO)cc4)cc23)cc1C(=O)O (stereo partly shown) [Example 49]
104	Cc1ccc(C2CC23C(=O)Nc2cc(Cl)c(-c4ccc(-c5ccccc5O)cc4)cc23)cc1C(=O)O (stereo not shown) [Example 28]
21	O=C1Nc2cc(Cl)c(-c3ccc(-c4ccc(-n5cncn5)cc4)cc3)cc2C12CC2c1ccc(-c2nnn[nH]2)cc1 (stereo not shown) [Example 191]
99	CCN1C(=O)C2(CC2c2ccc(OC)c(C(=O)O)c2)c2cc(-c3ccc(-c4ccncc4)cc3)c(Cl)cc21 (stereo not shown) [Example 106]
43	Cn1cc(C2CC23C(=O)Nc2cc(Cl)c(-c4ccc(-c5ccccc5O)cc4)cc23)cc1C(=O)O (stereo not shown) [Example 43]
66	Cc1ccc(C2CC23C(=O)Nc2cc(F)c(-c4ccc(-c5ccccc5O)cc4)cc23)cc1CC(=O)O (stereo not shown) [Example 6]

Same assay, conditions: 2 h, 10 μM, percentage activation over vehicle control, read-out: Percentage activation of beta 1 at given concentration

activation at 10 µM [%]	SMILES
127	Cc1ccc(C2CC23C(=O)Nc2cc(Cl)c(-c4ccc(-c5cnn(C)c5)cc4)cc23)cc1C(=O)O (stereo not shown) [Example 85]
40	COc1ccc(C2CC23C(=O)Nc2cc(F)c(-c4ccc(-c5ccccc5O)cc4)cc23)cc1C(=O)O (stereo not shown) [Example 10]
112	CC(C)c1ccc(C2CC23C(=O)N(C)c2cc(Cl)c(-c4ccc(-c5ncccc5O)cc4)cc23)cc1C(=O)O (stereo not shown) [Example 37]
11	Cn1cc(C2CC23C(=O)Nc2cc(F)c(-c4ccc(-c5ccccc5O)cc4)cc23)cc1C(=O)O (stereo not shown) [Example 13]
92	Cc1ccc(C2CC23C(=O)Nc2cc(Cl)c(-c4ccc(-c5ccncc5)cc4)nc23)cc1C(=O)O (stereo not shown) [Example 83]
48	Cn1cc(C2CC23C(=O)Nc2cc(Cl)c(-c4ccc(-c5ccc(-n6cccn6)cc5)cc4)cc23)cc1C(=O)O (stereo not shown) [Example 120]
40	Cc1ccc(C2CC23C(=O)Nc2cc(Cl)c(-c4ccc(N5CCOCC5)c(F)c4)cc23)cc1C(=O)O (stereo not shown) [Example 71]
89	O=C(O)Cc1cccc(C2CC23C(=O)Nc2cc(Cl)c(-c4ccc(-c5cccnc5)cc4)cc23)c1 (stereo not shown) [Example 65]
29	Cc1ccc(C2CC23C(=O)N(C)c2cc(Cl)c(-c4ccc(-c5ccncc5O)cc4)cc23)cc1C(=O)O (stereo not shown) [Example 41]
16	Cc1ccc(C2CC23C(=O)Nc2cc(Cl)c(S(=O)(=O)Nc4ccccc4O)cc23)cc1C(=O)O (stereo not shown) [Example 92]
12	COc1ccc(C2CC23C(=O)Nc2cc(F)c(-c4ccc(-c5ccccc5O)cc4)cc23)cc1CC(=O)O (stereo not shown) [Example 12]
40	Cc1ccc(C2CC23C(=O)Nc2cc(Cl)c(-c4ccc(O)cc4)cc23)cc1C(=O)O (stereo not shown) [Example 29]
74	O=C(O)Cc1cccc(C2CC23C(=O)Nc2cc(Cl)c(-c4ccc(C5(CO)CC5)cc4)cc23)c1 (stereo not shown) [Example 48]
89	Cc1ccc(C2CC23C(=O)Nc2cc(F)c(-c4ccc(N5CCOCC5)cc4)cc23)cc1C(=O)O (stereo not shown) [Example 57]
36	Cc1ccc(C2CC23C(=O)Nc2cc(Cl)c(-c4ccc(N5CCOCC5)cc4)cc23)cc1C(=O)O (stereo not shown) [Example 66]
54	Cc1ccc(C2CC23C(=O)Nc2cc(Cl)c(-c4ccc(-c5ccccc5)cn4)cc23)cc1C(=O)O (stereo not shown) [Example 75]
137	Cc1ccc(C2CC23C(=O)Nc2cc(Cl)c(-c4ccc5[nH]ccc5c4)cc23)cc1C(=O)O (stereo not shown) [Example 94]
51	CC(C)c1ccc(C2CC23C(=O)Nc2cc(Cl)c(-c4ccc(OCCO)cc4)cc23)cc1C(=O)O (stereo not shown) [Example 52]
47	Cc1ccc(C2CC23C(=O)Nc2cc(Cl)c(-c4ccc(-c5ccccc5S(C)(=O)=O)cc4)cc23)cc1C(=O)O (stereo not shown) [Example 87]
79	Cn1ccc2cc(-c3cc4c(cc3F)NC(=O)C43CC3c3cccc(CC(=O)O)c3)ccc21 (stereo not shown) [Example 56]
28	CCn1cc(C2CC23C(=O)Nc2cc(Cl)c(-c4ccc(-c5ccccc5O)cc4)cc23)cc1C(=O)O (stereo not shown) [Example 39]
39	Cc1ccc(C2CC23C(=O)N(C)c2cc(Cl)c(-c4ccc(-c5ncccc5O)cc4)cc23)cc1C(=O)O (stereo not shown) [Example 36]
25	Cc1ccc(C2CC23C(=O)Nc2cc(Cl)c(-c4ccc(-c5ccccc5O)cn4)cc23)cc1C(=O)O (stereo not shown) [Example 8]
23	COc1ccc(C2CC23C(=O)Nc2cc(Cl)c(-c4ccc(-c5ccncc5)cc4)cc23)cc1C(=O)O (stereo not shown) [Example 73]
